Key:
NPRA [1] = test: [35S]ATPγS incorporation into NPRA (receptor phosphorylation) in CFs; format: cell-based, rat; conditions: ANP 5 minutes, KT5823 1 μM or expressed fragment
Method: To identify receptor phosphorylation by PKG, ^[35S]ATPγS was employed as a substrate. [^35S] incorporation into NPRA was analyzed according to the method previously described (Joubert et al., Biochem. 40:11096-105, 2001). Briefly, the treated CFs were scraped into 100 μl ice-cold incubation buffer (25 mM HEPES, pH 7.4, 50 mM NaCl, 5 mM MgCl2, 0.2 μM okadaic acid, 1 mM Na3VO4, 10 mM NaH2PO4, 10 mM NaF, and protease inhibitors (complete mini-tablet, Roche) and lysed by repeated passage through a 22-gauge needle. Lysates were added to incubation buffer containing 1 μCi [^35S]ATPγS (specific activity >1000 Ci/mmol), final volume of 200 μl, incubated at 37° C. for 30 minutes. Proteins were analyzed by SDS-PAGE (7.5%) and subsequent autoradiography.

PKG = target: T1, PKG (Homo sapiens, UniProt Q13976); conditions: earlier observation, Airhart et al. 2003; cited from earlier work
T1 construct: endogenous in cells; host or cells: HEK293 stably over-expressing FLAG-NPRA (HEK-NPRA)
T1 sequence (Q13976 1-671): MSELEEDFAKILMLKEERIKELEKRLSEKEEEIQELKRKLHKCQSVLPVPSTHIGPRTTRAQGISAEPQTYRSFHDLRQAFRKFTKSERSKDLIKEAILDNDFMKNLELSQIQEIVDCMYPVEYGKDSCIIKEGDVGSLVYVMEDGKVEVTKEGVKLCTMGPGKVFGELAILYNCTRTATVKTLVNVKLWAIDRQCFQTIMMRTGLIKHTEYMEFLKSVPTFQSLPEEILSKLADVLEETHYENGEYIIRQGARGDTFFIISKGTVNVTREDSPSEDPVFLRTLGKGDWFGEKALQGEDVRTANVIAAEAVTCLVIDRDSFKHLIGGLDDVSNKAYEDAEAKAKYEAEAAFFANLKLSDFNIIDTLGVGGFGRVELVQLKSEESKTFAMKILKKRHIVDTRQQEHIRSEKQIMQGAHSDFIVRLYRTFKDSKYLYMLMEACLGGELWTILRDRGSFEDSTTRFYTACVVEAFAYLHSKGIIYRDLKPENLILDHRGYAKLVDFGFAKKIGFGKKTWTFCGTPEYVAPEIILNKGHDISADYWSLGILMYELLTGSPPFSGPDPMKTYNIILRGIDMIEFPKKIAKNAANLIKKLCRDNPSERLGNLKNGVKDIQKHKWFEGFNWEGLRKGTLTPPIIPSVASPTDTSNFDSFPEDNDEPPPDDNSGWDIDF

NPRA [2] = test: [35S]ATPγS NPRA phosphorylation in HEK293 / HEK-NPRA cells; format: cell-based; conditions: HEK293 that overexpress NPRA
Method: To ensure that the 137-kD phosphorylation band observed in the CFs after ANP treatment was, in fact, NPRA, HEK293 or HEK-NPRA were treated with ANP with or without KT5823 as described above. The lysates were divided into two aliquots. One aliquot was incubated with [^35S] ATPγS and then separated by SDS-PAGE, blotted to Immobilon membranes, and visualized by autoradiography. The other aliquot was separated similarly and then probed with anti-NPRA antisera, stripped and re-probed with anti-α-tubulin to assure equal protein loading. Robust phosphorylation of a 137-kD protein occurred in the NPRA-expressing cells, but not in control cells (FIG. 6B). Since both KT5823 and sNRF^(806-1061) inhibit cytosolic-to-plasma membrane translocation of PKG, PKG-NPRA association appears to be required for PKG-induced NPRA phosphorylation.

COC(=O)[C@@]1(OC)C[C@H]2O[C@]1(C)n1c3ccccc3c3c4c(c5c6ccccc6n2c5c31)C(=O)N(C)C4 [KT5823]
ANP-induced NPRA phosphorylation (NPRA [1]): reduced ANP-induced NPRA phosphorylation to control levels | PKG translocation (PKG): inhibits PKG translocation | NP-dependent phosphorylation of NPRA (NPRA [2]): inhibited

From patent publication US7943296B2, “Methods of screening using a natriuretic peptide receptor” (Oregon Health & Science University, priority 2005, dated 2011)
